Measurements from patent publication US20230270798A1, “SYNBIOTIC COMPOSITION” (SOCIETE DES PRODUITS NESTLE S.A., priority 2020, published 2023).

Tests used:
Streptococcus salivarius = assay: Short-term colonic incubation, population of Streptococcus salivarius (16S Illumina sequencing with flow cytometry); format: cell-based
Method: (§1) The aim of this project was to evaluate the properties of a synbiotic combination of Bifidobacterium longum subsp. longum ATCC BAA-999 and LNT using short-term colonic incubations (48 h), in which the proximal colon environment of a baby was simulated. The evaluation was based on the effects on microbial metabolic activity (SCFA, lactate and ammonium production) and community composition (16Stargeted Illumina sequencing), through comparison with a blank (no treatment), a probiotic (containing only the B. longum subsp. longum strain) and a prebiotic (containing only LNT).
(§2) In these experiments, a simplified simulation of the continuous Simulator of the Human Microbial Ecosystem (SHIME®) was used. […]
(§3) To account for biological variability, all tests were performed in triplicate, resulting in 12 independent incubations. […] Ammonium concentrations were measured at the start and after 48 h of incubation. The effect on the gut microbial community was assessed through Illumina sequencing at the start of the incubation and after 6 h, and 48 h. […]

B. longum subsp. longum = assay: Short-term colonic incubation, population of B. longum subsp. longum (16S Illumina sequencing with flow cytometry); format: cell-based, Bifidobacterium longum subsp. longum; details: after 6 and 48 hours of incubation; synbiotic compared to the probiotic alone
Method: as §1, §2, §3

## CC(=O)N[C@H]1[C@H](O[C@H]2[C@@H](O)[C@@H](CO)O[C@@H](O[C@H]3[C@H](O)[C@@H](O)C(O)O[C@@H]3CO)[C@@H]2O)O[C@H](CO)[C@@H](O)[C@@H]1O[C@@H]1O[C@H](CO)[C@H](O)[C@H](O)[C@H]1O (stereo partly drawn) [prebiotic, Lacto-N-tetraose]
Streptococcus salivarius; 48 hours vs 6 hours
  population of S. salivarius at 48 hours compared to the population at 6 hours (in words): strongly decreases
Streptococcus salivarius; after 6 and 48 hours of incubation
  boost of the population of Streptococcus salivarius (in words): neither the probiotic alone, nor the prebiotic alone were able to boost
B. longum subsp. longum
  population of B. longum subsp. longum (in words): no effect
